Entries after “also recorded” stand apart in the source; their conditions may differ.
Tests used:
[1] = tested on: dermal wounds of db/db mice; test: Example 3 dermal wound closure, subcutaneous ECG/gel; assay type: in vivo
Procedure: db/db (Diabetic, […]) mice were used as an animal wound model. Dermal wounds were created using sterile 5 mm biopsy punches to expose the underlying muscle fascia, followed by subcutaneous injection of either control gel (6 wt %) or ECG/gel (50 μg/mL ECG in 6 wt % gel). In addition, a subgroup of the dermally-wounded mice was left untreated as controls. The dermal wounds of all mice were observed every other day until recovery using a digital camera to record successive images as well as measuring wound size using digital calipers. Image analysis using ImageJ was also performed to do a blind measurement of wound size. Subgroups of the mice were sacrificed at three different time points: day 3, day 8, and day 16. Skin samples were collected from the sacrificed mice for histology, immunohistochemistry analysis, and Western blot studies.

HDF, HaCaT, HAECs, BMM = test: Example 4 in vitro survival, migration, cytokine and growth factor secretion with TGF-beta I and high glucose; assay type: cell-based, human, mouse
From the text: Human dermal fibroblasts (HDF), human skin keratinocytes (HaCaT), human artery endothelial cells (HAECs), and mouse bone marrow-derived macrophages (BMM) were used to test the in vitro survival, migration, secretion of inflammatory cytokines, and angiogenic growth factors in the presence of TGF-beta I and high glucose content.
FIG. 4B is a Western blot of p38 and GAPDH (control) expression for dermal fibroblasts under high glucose levels. Untreated cells (control) were compared with cells exposed to 10 ng/ml of TGFβ with ECG treatments of 0 μg/mL, 10 μg/mL, and 1 μg/mL.

[2] = In vitro release of peptide from hydrogel; assay type: physicochemical; conditions: loadings 10, 20, 50 μg/mL; three weeks
Procedure: To characterize the ECG release properties of the NIPAAm-based hydrogels disclosed herein, the following experiments were conducted. Hydrogel samples were synthesized with varying levels of ECG loading: 10 μg/mL, 20 μg/mL, and 50 μg/mL. The cumulative release of ECG from the hydrogel samples was assessed over a three-week period.
Wound dressings were fabricated by encapsulating PTβR2I in the hydrogel solution at 4° C. Briefly, PTβR2I solution was mixed with 6 wt. % hydrogel solution to reach final PTβR2I concentrations of 10 μg/mL, 20 μg/mL and 50 μg/mL. The mixtures were stirred at 4° C. for 12 hours. To determine PTβR2I release kinetics, the mixtures were first incubated at 37° C. to gel. After 1 hour, the supernatant was replaced by a release medium (DPBS with 1% P/S). The medium was then collected at pre-determined time points for 21 days, and a fresh release medium was added after each collection. The concentration of the released PTβR2I was determined by measuring the fluorescence intensity and calculating the corresponding concentration using a standard curve. The bioactivity of the released PTβR2I was evaluated by its ability to bind to the TβR2 on the HDFs. […] After 2 hours of incubation, the cells were washed three times with DPBS, and the fluorescence intensity was measured using a microplate reader (excitation/emission=485/535 nm).

TGFβ1/p38 pathway = test: Immunoblotting of p-p38 in HDFs; assay type: cell-based, human; conditions: high glucose
Procedure: For in vitro tests, protein lysates were collected from HDFs. Pre-cooled cell scrapers were used to detach the cells, and the cells were re-suspended in RIPA lysis buffer with the inhibitor cocktail. For in vivo tests, wound skin tissues were washed three times with pre-cooled DPBS, dissected into small pieces, and re-suspended in RIPA lysis buffer containing protease and phosphatase inhibitors. Homogenization was then performed thereafter with an ultrasonic processor (Cole Parmer). After centrifugation at 12,000 g for 20 min, the supernatants were collected, and protein concentrations were measured using a Bradford protein assay kit (Bio-rad).
The protein samples were separated by 10% Mini-PROTEAN TGX stain-free precast gels (Bio-rad) and transferred onto an immune-blot PVDF membrane. The blots were washed three times with DPBS containing 0.1% Tween 20 (PBST), blocked with 5% milk powder in PBST buffer for 40 min, and incubated with primary antibodies at specific dilutions overnight at 4° C. The primary antibodies included rabbit GAPDH antibody (1:5000, Cell signaling), rabbit anti-a-smooth muscle actin (α-SMA) antibody (1:2000, Cell signaling), rabbit anti-phospho-Smad2(Ser465/467)/Smad3 (Ser423/425) (1:500, Cell signaling), and rabbit anti-phospho-p38 (1:500, Cell signaling). The membranes were washed three times with PBST and incubated with horseradish peroxidase (HRP)-conjugated secondary antibodies (1:2500). Immunoblots were then washed with PBST and detected with a WesternBright HRP substrate detection kit (Advansta). The ChemiDoc XPS+system (Bio-rad) was used to image the blots.

Q: Which “p38 expression in wound tissues” value ([1]; Western blot vs control gel) does the source give for ECGLLPVGRPDRVWRLCK here?
A: suppressed; also recorded: downregulated

Q: What about the “increase of blood vessel density and mature blood vessel density vs control” value ([1]; day 8) of the same molecule?
A: up to 4 fold

Q: What about the “survival and migration of keratinocytes, fibroblasts, and endothelial cells” value (HDF, HaCaT, HAECs, BMM; presence of TGF-beta I) of the same molecule?
A: improved

Q: What about the “angiogenic growth factor secretions” value (HDF, HaCaT, HAECs, BMM; various cell types) of the same molecule?
A: promoted

Q: And the pro-inflammatory cytokines expression (HDF, HaCaT, HAECs, BMM; various cell types)?
A: suppressed

Q: What about the “duration of initial rapid release of ECG from hydrogel” value [2] of the same molecule?
A: 3 to 4 days

Q: With `Oc1ccc(-c2nc(-c3ccncc3)c(-c3ccc(F)cc3)[nH]2)cc1` [SB202190, reference compound] as the molecule, how does the p-p38 expression (TGFβ1/p38 pathway; with TGFβ1) read?
A: notably downregulated

Q: With “TGFβ1: growth factor used as stimulus, 10 ng/ml” as the molecule, how does the “increase in baseline phosphorylation of p38 relative to no TGFβ1 group” value (TGFβ1/p38 pathway) read?
A: ~4 fold
